Measured values as given in patent US9593305B2, “Differentiation of pluripotent stem cells” (Janssen Biotech, Inc., priority 2008, dated 2017).

Experiments:
Assay type in all cases: cell-based
[1] = tested on: H1 human embryonic stem cells; assay: Single-cell monolayer assay with EGF/FGF4, serum free, no activin A (Example 10, Table 10); conditions: No AA (without Wnt3a); FGF(100 ng/ml); EGF(100 ng/ml)
[2] = tested on: H1 human embryonic stem cells; assay: Definitive endoderm formation with GDF family members, SOX17 and cell number (Example 13); conditions: for SOX17 expression, reagent alone: 20 ng/ml Wnt3a or 2.5 μM compound alone, four days; for SOX17 induction in combination with GDF-8: 2.5 μM compound with 100 ng/ml GDF-8, exceeding activin A/Wnt3a positive control
Method: Stock cultures of human embryonic stem cells (H1 human embryonic stem cell line) were maintained in an undifferentiated, pluripotent state on reduced growth factor […]™ (BD Biosciences; Cat #356231)-coated dishes in MEF conditioned medium with passage on average every four days. Passage was performed by exposing cell cultures to a solution of 1 mg/ml dispase (Invitrogen; Cat #17105-041) for 5 to 7 minutes at 37° C. followed by rinsing the monolayer with MEF conditioned culture medium and gentle scraping to recover cell clusters. Clusters were centrifuged at low speed to collect a cell pellet and remove residual dispase. Cell clusters were split at a 1:3 or 1:4 ratio for routine maintenance culture or a 1:1 ratio for immediate assay. All human ES cell lines were maintained at passage numbers less than 50 and routinely evaluated for normal karyotype and absence of mycoplasma.
Cell clusters were evenly resuspended in MEF conditioned medium supplemented with 8 ng/ml bFGF and seeded onto reduced growth factor […]™-coated 96-well Packard VIEWPLATES (PerkinElmer; Cat #6005182) in volumes of 0.1 ml/well. Daily feeding was conducted by aspirating spent culture medium from each well and replacing with an equal volume of fresh medium. Plates were maintained at 37° C., 5% CO2 throughout the duration of assay.
The assay was initiated by aspirating the culture medium from each well and adding back aliquots (100 μl) of test medium. Test conditions were performed in triplicate over a total four-day assay period, feeding on day 1 and day 3 by aspirating and replacing the medium from each well with fresh test medium. Various members of the GDF family of proteins were obtained for testing as follows: GDF-3 (PeproTech; Cat #120-22); GDF-5 (DePuy Orthopaedics, Inc., a Johnson & Johnson company); GDF-8 (R&D Systems; Cat #788-G8); GDF-10 (R&D Systems; Cat #1543-BP); GDF11 (PeproTech; Cat #120-11); GDF-15 (R&D Systems; Cat #957-GD). On the first day of assay, all wells received an aliquot (80 μl) of basal medium DMEM:F12 medium (Invitrogen; Cat #11330-032) supplemented with 0.5% fetal bovine serum (Hyclone; Cat #SH30070.03). A series of five different control or experimental test samples was created to evaluate activin A or various GDFs in combination with Wnt3a or Compound 34 or Compound 56. These test samples were added in 20 μl aliquots (5× concentrated) to appropriately matched assay wells to yield a final assay volume of 100 μl in each well at the final assay conditions indicated. In the first set of control samples, the following conditions were tested: 1) no additive (i.e. no supplementary growth factor or small molecule); 2) 100 ng/ml activin A (PeproTech; Cat #120-14) in combination with 20 ng/ml Wnt3a (R&D Systems; Cat #1324-WN/CF); 3) 20 ng/ml Wnt3a alone; 4) Compound 34 alone (2.5 μM) without any growth factor or small molecule; 5) Compound 56 alone (2.5 μM) without any growth factor or small molecule. In the second set of test samples, the following conditions were tested in combination with 100 ng/ml GDF3: 1) no additive (i.e. GDF-3 alone); 2) 20 ng/ml Wnt3a; 3) 20 ng/ml Wnt3a with Compound 34 (2.5 μM); 4) Compound 34 (2.5 μM); 5) Compound 56 (2.5 μM); and 6) 20 ng/ml Wnt3a with Compound 56 (2.5 μM). In the third set of test samples, each of the six conditions was combined with 100 ng/ml GDF-5. In the fourth set of test samples, each of the six conditions was combined with 100 ng/ml GDF-8. In the fifth set of test samples, each of the six conditions was combined with 100 ng/ml GDF-10. In the sixth set of test samples, each of the six conditions was combined with 100 ng/ml GDF-11. In the seventh set of test samples, each of the six conditions was combined with 100 ng/ml GDF-15. On the third day of assay, all wells for all test samples, received 100 ng/ml Activin A or 100 ng/ml respective GDF growth factor, without Wnt3a or Compound 34 or Compound 56, diluted into DMEM:F12 medium supplemented with 2% FBS. […]

[3] = tested on: H1 human embryonic stem cells; assay: Step-wise differentiation, FACS for CXCR4 after step 1 (Example 16); conditions: 100 ng/ml GDF-8 with compound on first day, compared to activin A and Wnt3a
Method: The assay was initiated by aspirating the culture medium from each well and adding back an aliquot (0.5 ml) of test medium. Test conditions for the first step of differentiation were conducted over a three-day period, feeding daily by aspirating and replacing the medium from each well with fresh test medium. On the first day of assay, 100 ng/ml activin A (PeproTech; Cat #120-14) or 100 ng/ml GDF-8 (R&D Systems, Cat #788-G8) was added to respective assay wells where each growth factor was diluted into RPMI-1640 medium (Invitrogen; Cat #: 22400) with 2% Albumin Bovine Fraction V, Fatty Acid Free (FAF BSA) (Proliant Inc. Cat #: SKU 68700), and 20 ng/ml Wnt3a (R&D Systems; Cat #1324-WN/CF). On the second day of assay, 100 ng/ml activin A or 100 ng/ml GDF-8 was diluted into RPMI-1640 medium supplemented with 2% FAF BSA without Wnt3a. In some test samples using GDF-8, Wnt3a was replaced with a small molecule compound, added only on the first day of definitive endoderm differentiation. These small molecules included Compound 19 (2.5 μM in assay), Compound 202 (2.5 μM in assay), Compound 40 (2.5 μM in assay), or a commercially available GSK3 inhibitor BIO (0.5 μM in assay) (EMD Chemicals, Inc.; Cat #361550). At the conclusion of the first step of differentiation, cells from some wells were harvested for flow cytometry analysis to evaluate levels of CXCR4, a marker of definitive endoderm formation. Additional wells were harvested for RT-PCR analysis to measure other markers of differentiation.
Cells for FACS analysis were blocked in a 1:5 solution of 0.5% human gamma-globulin (Sigma; Cat#G-4386) in PBS (Invitrogen; Cat #14040-133): BD FACS staining buffer—BSA (BD; Cat #554657) for 15 minutes at 4° C. Cells were then stained with antibodies for CD9 PE (BD; Cat #555372), CD99 PE (Caltag; #MHCD9904) and CXCR4 APC(R&D Systems; Cat#FAB 173A) for 30 minutes at 4° C. After a series of washes in BD FACS staining buffer, the cells were stained for viability with 7-AAD (BD; Cat #559925) and run on a BD FACSArray. […]

Structure (SMILES) | Sox17 Expression, Average Total Intensity [1] | SOX17 expression, reagent alone [2] | SOX17 induction in combination with GDF-8 [2] | percentage of CXCR4 positive cells after step 1 [3]
O=C1CCN2CCN(CC2)Cc2cc(Cl)cc(c2)Nc2ncnc(n2)-c2cncc(c2)CCCN1 [Compound 34, 5-Chloro-1,8,10,12,16,22,26,32-octaazapentacyclo[24.2.2.1˜3.7˜0.1˜9,13˜0.1˜14.18˜]tritriaconta-3(33), 4,6,9(32), 10,12,14(31), 15,17-nonaen-23-one] | 1.13E+08 | failed to induce SOX17 expression | robust induction of SOX17 | –
Cc1c[nH]c(-c2cnc(NCCNc3ccc(C#N)cn3)nc2-c2ccc(Cl)cc2Cl)n1 [Compound 56, 6-[(2-{[4-(2,4-Dichlorophenyl)-5-(4-methyl-1H-imidazol-2-yl)pyrimidin-2-yl]amino}ethyl)amino]pyridine-3-carbonitrile] | – | failed to induce SOX17 expression | robust induction of SOX17 | –
CN1CCC(=O)NCCCc2cncc(c2)-c2ncnc(n2)Nc2cccc(c2)C1 [Compound 19, 14-Methyl-3,5,7,14,18,24,28-heptaazatetracyclo[20.3.1.1˜2,6˜0.1˜8,12˜]octacosa-1(26), 2(28), 3,5,8(27), 9,11,22,24-nonaen-17-one] | – | – | – | equivalent or slightly higher percentage of CXCR4 positive cells
C=CCN1CC(=O)NCCCc2cncc(c2)-c2ncnc(n2)Nc2cccc(c2)C1 [Compound 40, 14-Prop-2-en-1-yl-3,5,7,14,17,23,27-heptaazatetracyclo[19.3.1.1˜2.6˜0.1˜8,12˜]heptacosa-1(25), 2(27), 3,5,8(26), 9,11,21,23-nonaen-16-one] | – | – | – | equivalent or slightly higher percentage of CXCR4 positive cells
